Consider 5 compounds from patent US6426401B1, “Pharmaceutical composition containing an inhibitor of immunoglobulin-receptor interaction” (Tecnogen S.C.p.A., priority 1996, dated 2002).

Experiment [1] concerns interaction between human IgG and receptors Fcγ (U937 plasma-membrane). Briefly: IgG-FcR binding inhibition on U937 plasma-membrane (ELISA). From the text:
For this purpose, it has been developed an inhibition assay of the binding between human immunoglobulins (Ig) IgG and IgA and their receptors on U937 human cell line plasma-membrane.
The IgG receptors FcgRI and FcgRII (Looney R. et al., J. Immunol., 136, 1641, 1986) and IgA receptors Fca (Monteiro R. C., et al., J. Exp.Med., 171, 597-613, 1990) are constitutively express by this cell line.
Microplates for ELISA determination (Falcon Cat. No. 3912) have been treated with plasma-membrane obtained from U937 cells in variable concentrations between 0.1 and 10 μg/ml (referred to the total proteins in the plasma-membrane preparation) in PBS, 100 μl/well, for 15 hours at 4° C.
After 1 hour and 30′ at room temperature, the plates have been washed 5 times with PBS-T (PBS-Tween 0.05%) and each well has been filled with 100 μl of solutions containing biotinilated Ig at variable concentrations between 0.02 and 2 μg/ml in PBS-BSA 0.5%.
After incubation of 1 h 30′ at 37° C., a solution of streptavidin derivatized with peroxidase has been added (Sigma, Cat. No. S-5512) diluted 1:1000 in PBS-BSA 0.5%, 100 μl/well. After 1 h incubation at 37° C., the plates have been washed 5 times with PBS-T and each well has been filled with 100 μl of a 2,2′-azino-bis(3-ethylbenzthiazoline-6-sulfonic acid) (Sigma, Cat. No. A-9941) in phosphate buffer pH 5 and 0.012% hydrogen peroxide.
After about 30′ the absorbance at 405 nm of each well has been determined by a plate reader (Merck, Mod. Mios) and the results are shown in TABLE 1.
The inhibition Ig/Fc assay has been carried out using U937 plasma-membrane at 10 μg/ml concentration for immobilization on plate and biotinilated Ig at 0.4 μg/ml concentration.
IgGs have been incubated with peptides of this invention (L-PAM, D-PAM and P-PAM) and two controls, namely peptides Arg-Thr-Tyr in L configuration (named CON-L) and in D configuration (named CON-D), at concentrations between 1 to 500 μg/ml (Table 2), whereas for IgA the inhibition assays have been carried out in similar conditions with L-PAM and CON-L peptides (Table 3).
B/B0 means the inhibition percentage calculated dividing the values, in terms of OD, obtained in presence of competitors, by those obtained in absence of competitors.
For orientation: ELISA stands for enzyme-linked immunosorbent assay.

Experiment [2] deals with interaction between human IgA and receptors Fcα (U937 plasma-membrane). Nature of the experiment: IgA/FcR binding inhibition on U937 plasma-membrane (ELISA). From the text: For this purpose, it has been developed an inhibition assay of the binding between human immunoglobulins (Ig) IgG and IgA and their receptors on U937 human cell line plasma-membrane. The IgG receptors FcgRI and FcgRII (Looney R. et al., J. Immunol., 136, 1641, 1986) and IgA receptors Fca (Monteiro R. C., et al., J. Exp.Med., 171, 597-613, 1990) are constitutively express by this cell line. Microplates for ELISA determination (Falcon Cat. No. 3912) have been treated with plasma-membrane obtained from U937 cells in variable concentrations between 0.1 and 10 μg/ml (referred to the total proteins in the plasma-membrane preparation) in PBS, 100 μl/well, for 15 hours at 4° C. […] After incubation of 1 h 30' at 37° C., a solution of streptavidin derivatized with peroxidase has been added (Sigma, Cat. No. […] No. A-9941) in phosphate buffer pH 5 and 0.012% hydrogen peroxide. After about 30' the absorbance at 405 nm of each well has been determined by a plate reader (Merck, Mod. Mios) and the results are shown in TABLE 1. […] B/B0 has the above mentioned meaning.

Another experiment relates to SRBC-IgG and U937 FcRs. It counts as cell-based, human. The settings on record: for IC50 (inhibitor amount necessary to reduce at 50% the rosettes formation between SRBC-IgG and U937 FcRs): U937/SRBC-IgG 1:100, 30 minutes at 25° C. The text has this: The trial has been carried on L-PAM and D-PAM peptides with the assay of rosettes formation inhibition between sheep red blood cells (SRBC) derivatized with human IgG and U937 cells (prepared as described above). Rosettes formation assay has been performed in accordance with the protocol of Lund J. et al. (FASEB J., 9, 115-119, 1995) modified as follows. The derivatized SRBC have been prepared using SRBC-tanned (tannic acid pretreated SRBC, Sigma Cat. No. R-8128) and human IgG (Sigma Cat. No. I-4506) following the provider protocol. […] No. A-9418) in DPBS (Sigma, Cat. No. D-5527). […] After 30 minutes at 25° C. rosettes have been counted, and more particularly U937 having 4 or more SRBC bound on the surface. In these conditions it has been discovered that, on the average, the 45% of treated U937 gave rosettes formation. In the above described conditions, it has been performed the inhibition assay of rosettes formation by using L-PAM , D-PAM, CON-L and CON-D peptides. A further control assay has been carried on by using IgG as inhibition positive control and not derivatized SRBC as negative control.

Experiment [3] deals with interaction IgE-receptor (FcεR of local mastcells). Nature of the experiment: Passive cutaneous anaphylaxis assay (blueing lesions, Evan's Blue). The settings on record: rat; for Extension of blueing lesion (%): intradermal with ascitic fluid IgE; for inhibition of IgE-receptor interaction in vivo (in words): passive cutaneous anaphylaxis. It is filed as in vivo. On the procedure:
Rat ascit fluid containing ovalbumin antigen specific IgE and with a total immunoglobulins amount of 4 mg/ml, scaled diluted in PBS, has been injected by intradermal route in a male rat of CD specie.
Intradermal injection of 50 μl volume have been done on the shaved back of the animal.
In this way it has been allowed ascitic fluid IgE to bind FcεR of local mastcells, sensitizing them.
After 24 h, 1 mg of ovalbumin and Evan's Blue dye at 2% concentration in 1 ml of PBS have been injected by endovenous route.
After 15 minutes it has been observed the presence on the rat back derma of a colored area whose extension and color intensity are proportional to the IgE antigen-specific amount injected together with the ascitic fluid.
The blueing lesions are given by the injected antigen that bind to the IgE and determined the degranulation and the release of mediators in the site of intradermal injection. Consequently a local increase of vascular permeability and a dye leak from vessel has been observed.
For the inhibition assay, the ascitic fluid containing IgE and properly diluted has been incubated with L-PAM and D-PAM peptides in total immunoglobulins-peptides molar ratio 1:2,1:20,1:200, 1:2000, 1:20.000, and 1:200.000, […]
Separate experiments for the two peptides have been performed.
In CD1 rats, 50 μl of the fluid ascitic-peptide mixture at various concentrations have been injected intradermally.
As a positive control it has been used a 50 μl injection of ascitic fluid free of peptide.
After 24 h the antigen, together with Evans's Blue dye, has been injected as described above.
After 15 minutes it has been observed that the intensity and extension of the blueing lesions on the rat back were […] to the amounts of the injected peptide and were completely absent at highest peptide concentrations.

[4] abbreviates: inhibitor amount 0.025 micrograms (first line).
[5] abbreviates: inhibitor amount 0.025 micrograms.
Setting [6] is: inhibitor amount 2.5 micrograms.
Setting [7] is: inhibitor amount 250 micrograms.
Setting [8] is: inhibitor amount 2500 micrograms.

Converted amounts (≈) assume the structure as drawn.

In the case of Arg-Thr-Tyr [CON-L, reference compound], the “inhibition of IgG-FcR interaction (in words)” value in experiment [1] is listed as “unable to inhibit this interaction”. Moreover, in experiment [2], the “inhibition of IgA-FcR interaction (in words)” value was “unable to produce the same effect”. Moreover, in the experiment with SRBC-IgG and U937 FcRs, the “inhibition of rosettes formation (in words)” value is given as “unable to inhibit this interaction”; the “IC50 (inhibitor amount necessary to reduce at 50% the rosettes formation between SRBC-IgG and U937 FcRs)” value is given as “No Inhibition”.
Take `C[C@@H](O)[C@H](NC(=O)[C@@H](N)CCCNC(=N)N)C(=O)N[C@@H](Cc1ccc(O)cc1)C(=O)NCCCC[C@H](NC(=O)[C@H](Cc1ccc(O)cc1)NC(=O)[C@@H](NC(=O)[C@@H](N)CCCNC(=N)N)[C@@H](C)O)C(=O)NCCCC[C@H](NC(=O)[C@H](CCCCNC(=O)[C@H](Cc1ccc(O)cc1)NC(=O)[C@@H](NC(=O)[C@@H](N)CCCNC(=N)N)[C@@H](C)O)NC(=O)[C@H](Cc1ccc(O)cc1)NC(=O)[C@@H](NC(=O)[C@@H](N)CCCNC(=N)N)[C@@H](C)O)C(=O)NCC(=O)O` [L-PAM, (H2N-L-Arg-L-Thr-L-Tyr-CO)4-(Lys)2-Lys-Gly-OH]: in experiment [1], the “inhibition of IgG-FcR interaction (in words)” value is listed as “produce, in a dose-dependent manner, the same interaction level as IgG”. In addition, the “inhibition of IgA-FcR interaction (in words)” value in experiment [2] is on record as “specifically inhibit the interaction IgA-FcR”. Moreover, the “inhibition of rosettes formation (in words)” value in the experiment on SRBC-IgG and U937 FcRs is “capable of inhibiting rosettes formation”. Besides, the “IC50 (inhibitor amount necessary to reduce at 50% the rosettes formation between SRBC-IgG and U937 FcRs)” value with SRBC-IgG and U937 FcRs was 78 µg/mL (≈ 36.4 µM). The “Extension of blueing lesion (%)” value in experiment [3] (setting [4]) was found to be 65%; in experiment [3] (setting [5]), 50%; in experiment [3] (setting [6]) it was 35%; in experiment [3] (inhibitor amount 25 micrograms), 0%; in experiment [3] (setting [7]), 0%; in experiment [3] (setting [8]), 0%. For the same compound, the “inhibition of IgE-receptor interaction in vivo (in words)” value in experiment [3] was “able to inhibit in a dose dependent manner the interaction IgE-receptor up to a complete disappearance of the inflammatory reaction”.
For the compound `C[C@H](O)[C@@H](NC(=O)[C@H](N)CCCNC(=N)N)C(=O)N[C@H](Cc1ccc(O)cc1)C(=O)NCCCC[C@H](NC(=O)[C@@H](Cc1ccc(O)cc1)NC(=O)[C@H](NC(=O)[C@H](N)CCCNC(=N)N)[C@H](C)O)C(=O)NCCCC[C@H](NC(=O)[C@H](CCCCNC(=O)[C@@H](Cc1ccc(O)cc1)NC(=O)[C@H](NC(=O)[C@H](N)CCCNC(=N)N)[C@H](C)O)NC(=O)[C@@H](Cc1ccc(O)cc1)NC(=O)[C@H](NC(=O)[C@H](N)CCCNC(=N)N)[C@H](C)O)C(=O)NCC(=O)O` [D-PAM, (H2N-D-Arg-D-Thr-D-Tyr-CO)4-(Lys)2-Lys-Gly-OH], the “inhibition of IgG-FcR interaction (in words)” value in experiment [1] is listed as “produce, in a dose-dependent manner, the same interaction level as IgG”. In the experiment on SRBC-IgG and U937 FcRs, the “inhibition of rosettes formation (in words)” value is on record as “capable of inhibiting rosettes formation”. Moreover, the “Extension of blueing lesion (%)” value is recorded as 60% in experiment [3] (setting [4]); 37% in experiment [3] (setting [5]); 33% in experiment [3] (setting [6]); 20% in experiment [3] (inhibitor amount 25 micrograms); 15% in experiment [3] (setting [7]); 0% in experiment [3] (setting [8]). In addition, the “inhibition of IgE-receptor interaction in vivo (in words)” value in experiment [3] is “able to inhibit in a dose dependent manner the interaction IgE-receptor up to a complete disappearance of the inflammatory reaction”.
On to “(H2N-L-Arg(Pmc)-L-Thr(OtBu)-L-Tyr(OtBU)-CO)4-(Lys)2-Lys-Gly-OH [P-PAM]”, for which the “inhibition of IgG-FcR interaction (in words)” value in experiment [1] is on record as “produce, in a dose-dependent manner, the same interaction level as IgG”. Besides, the “inhibition of IgA-FcR interaction (in words)” value in experiment [2] was “specifically inhibit the interaction IgA-FcR”.
Taken in the same sequence, the figures for “bovine serum albumin [BSA, reference compound]” were “unable to inhibit this interaction” and “unable to produce the same effect”.
